Test results as given in patent US11986471B2, “Compounds and methods of use” (Tango Therapeutics, Inc., priority 2018, dated 2024).

Experiments:
HAP1 MTAP-intact = experiment: SDMA in-cell western assay, HAP1 MTAP-intact cell line; format: cell-based; details: Homo sapiens
In short: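 Symmetric dimethylarginine (SDMA) levels were measured by in-cell western in an isogenic HAP1 pair, one expressing endogenous MTAP and one MTAP-null, and IC50 values were derived for each line. Compounds whose IC50 ratio between the lines is 3-fold or more are classed as MTAP-selective.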

PRMT5 [1] = target: T1, PRMT5 (Homo sapiens, UniProt O14744); experiment: PRMT5 IC50 assay in the presence of SAM as cofactor; format: biochemical
T1 construct: purchased Viva (custom protein)
T1 sequence (O14744 whole entry): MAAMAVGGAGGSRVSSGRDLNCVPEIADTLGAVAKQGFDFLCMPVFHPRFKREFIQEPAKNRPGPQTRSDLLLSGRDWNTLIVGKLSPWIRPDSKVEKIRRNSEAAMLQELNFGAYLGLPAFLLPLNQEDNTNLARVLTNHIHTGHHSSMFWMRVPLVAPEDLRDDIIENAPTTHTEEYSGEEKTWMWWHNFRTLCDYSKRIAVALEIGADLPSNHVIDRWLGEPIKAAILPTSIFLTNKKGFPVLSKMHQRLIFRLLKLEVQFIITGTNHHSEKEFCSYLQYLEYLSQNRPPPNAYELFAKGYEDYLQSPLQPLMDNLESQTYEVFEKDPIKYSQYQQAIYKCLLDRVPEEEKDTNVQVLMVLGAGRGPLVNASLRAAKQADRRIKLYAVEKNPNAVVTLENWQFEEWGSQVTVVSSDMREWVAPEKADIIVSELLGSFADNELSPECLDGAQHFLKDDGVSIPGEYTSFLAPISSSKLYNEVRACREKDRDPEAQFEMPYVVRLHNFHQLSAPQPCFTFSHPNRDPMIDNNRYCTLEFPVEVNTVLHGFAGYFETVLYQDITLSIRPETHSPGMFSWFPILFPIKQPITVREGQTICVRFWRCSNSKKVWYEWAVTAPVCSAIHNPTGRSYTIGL
T1 sequence (Q9BQA1 whole entry partner): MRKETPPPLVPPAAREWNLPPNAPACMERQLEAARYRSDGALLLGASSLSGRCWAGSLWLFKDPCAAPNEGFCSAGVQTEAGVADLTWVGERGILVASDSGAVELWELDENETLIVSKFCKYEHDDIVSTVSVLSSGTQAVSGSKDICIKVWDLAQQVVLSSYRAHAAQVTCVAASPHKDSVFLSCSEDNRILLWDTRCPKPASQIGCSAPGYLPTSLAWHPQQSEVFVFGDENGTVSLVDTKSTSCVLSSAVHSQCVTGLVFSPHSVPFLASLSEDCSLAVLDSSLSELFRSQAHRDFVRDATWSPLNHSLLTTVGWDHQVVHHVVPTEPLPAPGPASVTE
In short: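 Enzyme: human PRMT5. Conditions: plus SAM, plus MTA, or cofactor-free. Output: IC50 (μM); Ki via IC50/1.5 (SAM) or IC50/13.5 (MTA).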

HAP1 MTAP-deleted = experiment: SDMA in-cell western assay, HAP1 MTAP-deleted cell line; format: cell-based; details: for IC50: Homo sapiens, HAP1 MTAP-deleted cell line; for MTAP Intact/Deleted Ratio: IC50 ratio HAP1 MTAP-intact / HAP1 MTAP-deleted
In short: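 Symmetric dimethylarginine (SDMA) levels were measured by in-cell western in MTAP-null HAP1 cells, one half of an MTAP-isogenic pair whose partner line expresses endogenous MTAP. Compound potency is reported as IC50.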

PRMT5 [2] = target: T1, PRMT5; experiment: PRMT5 IC50 assay with no cofactor; format: biochemical
In short: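 Human PRMT5 inhibition, IC50 in μM; cofactor varied (SAM / MTA / none).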

PRMT5 [3] = target: T1, PRMT5; experiment: PRMT5 IC50 assay in the presence of MTA as cofactor; format: biochemical; details: for IC50: PRMT5, MTA as cofactor
In short: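 Each compound is tested on PRMT5 in the presence of SAM, of MTA, and without any cofactor. Ki values are then back-calculated using fixed factors of 1.5 (SAM) and 13.5 (MTA), and the two Ki values are compared as a ratio.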

[4] = ratio between Ki in the presence of SAM and Ki in the presence of MTA
[5] = ratio between the Ki in the presence of SAM and the Ki in the presence of MTA

IC50 (HAP1 MTAP-intact) [nM] | IC50 (PRMT5 [1]) [nM] | IC50 (HAP1 MTAP-deleted) [nM] | IC50 (PRMT5 [2]; read-out: No Co-factor IC50) [nM] | IC50 (PRMT5 [3]) [nM] | IC50 (PRMT5 [2]) [nM] | SMILES | MTAP Intact/Deleted Ratio (HAP1 MTAP-deleted) | SAM/MTA Ratio (PRMT5 [3]; [4]) | SAM/MTA Ratio (PRMT5 [3]; [5])
≥ 10000 | 500 to 5000 | ≥ 10000 | ≥ 5000 | 500 to 5000 | – | CC(C)Cc1cc(C(=O)NC[C@H](O)CN2CCc3c(ccc(OCc4cnco4)c3Cl)C2)cc(NC2CCC2)n1 [Compound 287] | C* (an IC50 ratio of less than 3 fold between the IC50 in the HAP1 MTAP-intact cell line and the HAP1 MTAP-deleted cell line) | A (a Ki ratio greater than or equal to 10 fold between the Ki in the presence of SAM and the Ki in the presence of MTA) | –
1000 to 10000 | 50 to 500 | < 1000 | – | 50 to 500 | 500 to 5000 | O=C(NC[C@H](O)CN1CCc2cc(OCc3cnco3)ccc2C1)c1ccnc(NC2CCN(C(=O)C3CCC3)CC2)c1 [Compound 433, 2-[[1-(cyclobutanecarbonyl)-4-piperidyl]amino]-N-[(2S)-2-hydroxy-3-[6-(oxazol-5-ylmethoxy)-3N-dihydro-1H-isoquinolin-2-yl]propyl]pyridine-4-carboxamide] | B* (an IC50 ratio greater than or equal to 3 fold but lower than 10 fold between the IC50 in the HAP1 MTAP-intact cell line and the HAP1 MTAP-deleted cell line) | – | A (a Ki ratio greater than or equal to 10 fold between the Ki in the presence of SAM and the Ki in the presence of MTA)
≥ 10000 | 50 to 500 | ≥ 10000 | – | 50 to 500 | ≥ 5000 | Cc1c(OCc2cnco2)ccc2c1CCN(C[C@@H](O)CNC(=O)c1cc(NC3CCN(C(=O)C(C)(C)C)CC3)ncn1)C2 [Compound 523, 6-{[1-(2,2-dimethylpropanoyl)piperidin-4-yl]amino}-N-[(2S)-2-hydroxy-3-{5-methyl-6-[(1,3-oxazol-5-yl)methoxy]-1,2,3,4-tetrahydroisoquinolin-2-yl}propyl]pyrimidine-4-carboxamide] | C* (an IC50 ratio of less than 3 fold between the IC50 in the HAP1 MTAP-intact cell line and the HAP1 MTAP-deleted cell line) | – | A (a Ki ratio greater than or equal to 10 fold between the Ki in the presence of SAM and the Ki in the presence of MTA)
≥ 10000 | 500 to 5000 | ≥ 10000 | ≥ 5000 | 50 to 500 | – | Cc1ncoc1COc1ccc2c(c1Cl)CCN(C[C@@H](O)CNC(=O)c1cc(NC3CCCC3)ncn1)C2 [Compound 339, N-[(2S)-3-[5-chloro-6-[(4-methyl-1,3-oxazol-5-yl)methoxy]-1,2,3,4-tetrahydroisoquinolin-2-yl)-2-hydroxypropyl]-6-(cxclopentylamino)pyrimidine-4-carboxamide] | C* (an IC50 ratio of less than 3 fold between the IC50 in the HAP1 MTAP-intact cell line and the HAP1 MTAP-deleted cell line) | A (a Ki ratio greater than or equal to 10 fold between the Ki in the presence of SAM and the Ki in the presence of MTA) | –
≥ 10000 | 500 to 5000 | ≥ 10000 | ≥ 5000 | 500 to 5000 | – | Cc1ncoc1COc1ccc2c(c1C)CCN(C[C@@H](O)CNC(=O)c1cccc(NC3COC3)c1)C2 [Compound 375, N-[(2S)-2-hydroxy-3-{5-methyl-6-[(4-methyl-1,3-oxazol-5-yl)methoxy]-1,2,3,4-tetrahydroisoquinolin-2-yl}propyl]-3-[(oxetan-3-yl)amino]benzamide] | C* (an IC50 ratio of less than 3 fold between the IC50 in the HAP1 MTAP-intact cell line and the HAP1 MTAP-deleted cell line) | A (a Ki ratio greater than or equal to 10 fold between the Ki in the presence of SAM and the Ki in the presence of MTA) | –
< 1000 | 500 to 5000 | < 1000 | ≥ 5000 | 50 to 500 | – | O=C(NC[C@H](O)CN1CCc2cc(OCc3cnco3)ccc2C1)c1cc(NC2CCC2)ncc1F [Compound 334, (S)-2-(cyclobutylamino)-5-fluoro-N-(2-hydroxy-3-(6-(oxazol-5-ylmethoxy)-3A-dihydroisoquinolin-2(1H)-yl)propyl)isonicotinamide] | C* (an IC50 ratio of less than 3 fold between the IC50 in the HAP1 MTAP-intact cell line and the HAP1 MTAP-deleted cell line) | A (a Ki ratio greater than or equal to 10 fold between the Ki in the presence of SAM and the Ki in the presence of MTA) | –
≥ 10000 | 500 to 5000 | ≥ 10000 | – | 500 to 5000 | ≥ 5000 | O=C(NC[C@H](O)CN1CCc2c(ccc(OCc3cnco3)c2Cl)C1)c1ccc(OC2CCOCC2)cc1 [Compound 482, (S)—N-(3-(5-chloro-6-(oxazol-5-ylmethoxy)-3,4-dihydroisoquinolin-2(1H)-yl)-2-hydroxypropyl)-4-((tetrahydro-2H-pyran-4-yl)oxy)benzamide] | C* (an IC50 ratio of less than 3 fold between the IC50 in the HAP1 MTAP-intact cell line and the HAP1 MTAP-deleted cell line) | – | A (a Ki ratio greater than or equal to 10 fold between the Ki in the presence of SAM and the Ki in the presence of MTA)
≥ 10000 | 500 to 5000 | ≥ 10000 | ≥ 5000 | 50 to 500 | – | O=C(NC[C@H](O)CN1CCc2c(ccc(OCc3cnco3)c2Cl)C1)c1ccnc(NC2CC(C(F)F)C2)c1 (stereo partly drawn) [Compound 317, (S)—N-(3-(5-chloro-6-(oxazol-5-ylmethoxy)-3,4-dihydroisoquinolin-2(1H)-yl)-2-hydroxypropyl)-2-((3-(difluoromethyl)cyclobutyl)amino)isonicotinamide] | C* (an IC50 ratio of less than 3 fold between the IC50 in the HAP1 MTAP-intact cell line and the HAP1 MTAP-deleted cell line) | A (a Ki ratio greater than or equal to 10 fold between the Ki in the presence of SAM and the Ki in the presence of MTA) | –
< 1000 | 50 to 500 | < 1000 | – | 50 to 500 | 500 to 5000 | CC(C)C(=O)N1CCN(c2cc(C(=O)NC[C@H](O)CN3CCc4c(ccc(OCc5cnco5)c4Cl)C3)cc(NC3CCC3)n2)CC1 [Compound 466] | C* (an IC50 ratio of less than 3 fold between the IC50 in the HAP1 MTAP-intact cell line and the HAP1 MTAP-deleted cell line) | – | A (a Ki ratio greater than or equal to 10 fold between the Ki in the presence of SAM and the Ki in the presence of MTA)
1000 to 10000 | 50 to 500 | < 1000 | – | 50 to 500 | 500 to 5000 | CC(C)(C)C(=O)N1CCC(Nc2cc(C(=O)NC[C@H](O)CN3CCc4cc(OCc5cnco5)ccc4C3)ccn2)CC1 [Compound 449, 2-[[1-(2,2-dimethylpropanoyl)-4-piperidyl]amino]-N-[(2S)-2-hydroxy-3-[6-(oxazol-5-ylmethoxy)-3,4-dihydro-1H-isoquinolin-2-yl]propyl]pyridine-4-carboxamide] | C* (an IC50 ratio of less than 3 fold between the IC50 in the HAP1 MTAP-intact cell line and the HAP1 MTAP-deleted cell line) | – | A (a Ki ratio greater than or equal to 10 fold between the Ki in the presence of SAM and the Ki in the presence of MTA)
≥ 10000 | 500 to 5000 | ≥ 10000 | ≥ 5000 | 50 to 500 | – | CC(=O)N1CCC(Nc2cc(C(=O)NC[C@H](O)CN3CCc4nc(OCc5cnco5)ccc4C3)ncn2)CC1 [Compound 412, 6-[(1-acetyl-4-piperidyl)amino]-N-[(2S)-2-hydroxy-3-[2-(oxazol-5-ylmethoxy)-7,8-dihydro-5H-1,6-naphthyridin-6-yl]propyl]pyrimidine-4-carboxamide] | C* (an IC50 ratio of less than 3 fold between the IC50 in the HAP1 MTAP-intact cell line and the HAP1 MTAP-deleted cell line) | A (a Ki ratio greater than or equal to 10 fold between the Ki in the presence of SAM and the Ki in the presence of MTA) | –
≥ 10000 | 50 to 500 | 1000 to 10000 | – | 50 to 500 | ≥ 5000 | CC(=O)N1CC(Nc2cc(C(=O)NC[C@H](O)CN3CCc4c(ccc(OCc5ocnc5C)c4C)C3)nc(C(C)C)n2)C1 [Compound 575, (S)-6-((1-acetylazetidin-3-yl)amino)-N-(2-hydroxy-3-(5-methyl-6-((4-methyloxazol-5-yl)methoxy)-3A-dihydroisoquinolin-2(1H)-yl)propyl)-2-isopropylpyrimidine-4-carboxamide] | B* (an IC50 ratio greater than or equal to 3 fold but lower than 10 fold between the IC50 in the HAP1 MTAP-intact cell line and the HAP1 MTAP-deleted cell line) | – | A (a Ki ratio greater than or equal to 10 fold between the Ki in the presence of SAM and the Ki in the presence of MTA)
≥ 10000 | 500 to 5000 | ≥ 10000 | ≥ 5000 | 500 to 5000 | – | O=C(NC[C@H](O)CN1CCc2cc(OCc3cnco3)ccc2C1)c1cncc(NC2CCOCC2)c1 [Compound 383] | C* (an IC50 ratio of less than 3 fold between the IC50 in the HAP1 MTAP-intact cell line and the HAP1 MTAP-deleted cell line) | A (a Ki ratio greater than or equal to 10 fold between the Ki in the presence of SAM and the Ki in the presence of MTA) | –
